The values below are quoted from earlier work in patent US8709515B1, “Nutritional supplement method” (priority 2009, dated 2014).

Data set [1] relates to selenite induced cataracts in rats.
The next data set concerns albino rats. To be noted: fed in the water to albino rats.
Another data set relates to rats. To be noted: one eye with induced increase in intraocular pressure.

Take `O=C(O)CCCCC1CCSS1` (stereo not drawn) [Alpha lipoic acid]: the “dose above which it may not be safe” value in the data set with cats was “higher than 30 mg/day”.
For `O=C(O[C@@H]1Cc2c(O)cc(O)cc2O[C@@H]1c1cc(O)c(O)c(O)c1)c1cc(O)c(O)c(O)c1` [EGCG, Epigallocatechin gallate], the progression of cataract entry in data set [1] was “retards the progression of cataract”. Further, in the data set with albino rats, the light-induced photoreceptor damage entry was “attenuated light-induced photoreceptor damage”. Besides, in the data set on rats, the retinal neuronal death result is reported as “attenuated retinal neuronal death”.
